Patent publication US20240261425A1, “CONJUGATE AND THE PREPARING METHOD AND USE THEREOF” (Nanjing University, priority 2021, published 2024)

Assays:
sfGFP-TEV = assay: Modification of sfGFP-TEV by derivatives of the reagent 1; conditions: 2 h
Protocol: When the benzene ring of the Reagent 1 was modified with different substituents (Michael acceptor 1-1 to 1-4), the difference of different substituents on the addition reaction (for example, the addition activity) was investigated (Table 5). Michael acceptor 1-1 to 1-4 were reacted with sfGFP-TEV.
MA 2 or MA 2 analogues (i.e. Compounds 1a, 1a-1, 1b, 1b-1) (1 μL, 20 mM in DMSO) and PBS (15 μL, pH=7.4, 50 mM) were added to a solution of GFP-TEV (4 μL, 250 μM in HEPES buffer). After incubation at 37° C. for 2 h, the solution was desalted to give the product before LC-MS analysis.

[1] = Stability of linker-modified sfGFP in buffer comprising GSH (thiol exchange, mass spectrometry); type: physicochemical; conditions: 37° C., different times
Protocol: GSH (0.8 μL, 100 mM) and PBS (20 μL, pH=8.0, 50 mM) were added to a solution of GFP-Linker (20 μL, 40 μM, in PBS) at 37° C. for 48 h. (FIG. 20)
The stability of a sfGFP modified PhESF as a linker was verified, using the linker 5 and 4 with higher reactivity as controls. After sfGFP had been modified, it was added to the buffer comprising GSH, and was placed at 37° C. for different time, and a mass spectrometry was performed.

Compound	Addition number (sfGFP-TEV)	Conv. (%) (sfGFP-TEV)	thiol exchange [1]
O=S(=O)(F)/C=C/c1ccccc1 [Michael acceptor 1]	2	>99	did not have a thiol exchange
CN1C(=O)C=CC1=O [linker 5, reference compound]	–	–	obviously undergo thiol exchange
